Reference: paper PMC8919051, “Metabolome and Whole-Transcriptome Analyses Reveal the Molecular Mechanisms Underlying Hypoglycemic Nutrient Metabolites Biosynthesis in Cyclocarya paliurus Leaves During Different Harvest Stages” (Frontiers in Nutrition, 2022)

Biological target: α-amylase (EC 3.2.1.1)
Assay: α-amylase activity kit, colorimetric at […] nm
Format: biochemical

Row | SMILES | IC50
1 | O=C(/C=C/c1ccc(O)c(O)c1)O[C@@H]1C[C@@](O)(C(=O)O)C[C@@H](O)[C@@H]1O [neochlorogenic acid] | 230 µM
2 | COc1cc(C(=O)O)ccc1O [vanillic acid] | 330 µM
